Data published in ChEMBL document CHEMBL1129093, “Synthesis and biological activities of a novel class of azole-containing antifungal agents” (1996).
Values after ≈ are worked out from the molar mass of the structure shown.

Assays:
[1] = test system: Aspergillus flavus; test: (§1) Compound was tested in vitro for antifungal activity against Aspergillus flavus.; type: functional, asperigillus
[2] = test system: Aspergillus fumigatus; test: Compound was tested in vitro for antifungal activity against Aspergillus fumigatus.; type: functional
[3] = test system: Kluyveromyces marxianus; test: Compound was tested in vitro for antifungal activity against Candida kefyr.; type: functional
[4] = test system: Candida albicans; test: Compound was tested in vitro for antifungal activity against Candida albicans.; type: functional
[5] = test system: Cryptococcus neoformans; test: Compound was tested in vitro for antifungal activity against Cryptococcus neoformans.; type: functional
[6] = test system: Trichophyton benhamiae; test: (§2) Compound was tested in vitro for antifungal activity against Trichophyton mentagrophytes.; type: functional, trichophyton mentagro
[7] = test system: Aspergillus flavus; test: as §1; type: functional
[8] = test system: Trichophyton benhamiae; test: as §2; type: functional, Arthroderma benhamiae

Work on `Clc1ccc(CN2CCc3ccccc3C2Cn2cncn2)cc1` (stereo not drawn) yielded an MIC [1] of 25 µg/mL (≈ 73.8 µM), an MIC [2] of 4 µg/mL (≈ 11.8 µM) and an MIC [3] of 0.39 µg/mL (≈ 1.15 µM). For the same molecule, the MIC [4] was over 50 µg/mL, the MIC [5] was 6.25 µg/mL (≈ 18.4 µM) and the MIC [6] was 0.25 µg/mL (≈ 0.738 µM).
In the case of `c1ccc(CN2CCc3ccccc3C2Cn2ccnc2)cc1` (stereo not drawn), the MIC [1] is reported as 25 µg/mL (≈ 82.4 µM), the MIC [2] is reported as 25 µg/mL (≈ 82.4 µM) and the MIC [3] is reported as over 50 µg/mL. It also gave an MIC [4] of over 50 µg/mL, an MIC [5] of over 50 µg/mL and an MIC [6] of 0.19 µg/mL (≈ 0.626 µM).
Molecule `Clc1ccc(CN2CCc3ccccc3C2Cn2ccnc2)c(Cl)c1` (stereo not drawn) has an MIC [1] of 0.78 µg/mL (≈ 2.1 µM), an MIC [2] of 0.39 µg/mL (≈ 1.05 µM) and an MIC [3] of 0.19 µg/mL (≈ 0.51 µM). It also gave an MIC [4] of over 50 µg/mL, an MIC [5] of 1.56 µg/mL (≈ 4.19 µM) and an MIC [6] of 6.25 µg/mL (≈ 16.8 µM).
For `Fc1ccc(CN2CCc3ccccc3C2Cn2cncn2)cc1` (stereo not drawn), the MIC [1] was over 50 µg/mL, the MIC [2] was over 50 µg/mL and the MIC [3] was over 50 µg/mL. For the same molecule, the MIC [4] was over 50 µg/mL, the MIC [5] was over 50 µg/mL and the MIC [6] was 1 µg/mL (≈ 3.1 µM).
Molecule `Fc1ccc(CN2CCc3ccccc3C2Cn2ccnc2)c(F)c1` (stereo not drawn) has an MIC [1] of 0.78 µg/mL (≈ 2.3 µM), an MIC [2] of 6.25 µg/mL (≈ 18.4 µM) and an MIC [3] of over 50 µg/mL. It also gave an MIC [4] of over 50 µg/mL, an MIC [5] of over 50 µg/mL and an MIC [6] of 0.39 µg/mL (≈ 1.15 µM).
For `Fc1ccc(CN2CCc3ccccc3C2Cn2cncn2)c(F)c1` (stereo not drawn), the MIC [1] was over 50 µg/mL, the MIC [2] was over 50 µg/mL and the MIC [3] was 0.39 µg/mL (≈ 1.15 µM). For the same molecule, the MIC [4] was over 50 µg/mL, the MIC [5] was over 50 µg/mL and the MIC [6] was 2 µg/mL (≈ 5.88 µM).
`Clc1ccc(CN2CCc3ccccc3C2Cn2ccnc2)cc1` (stereo not drawn) was tested, and the MIC [1] was 0.19 µg/mL (≈ 0.562 µM), the MIC [2] was 3.12 µg/mL (≈ 9.23 µM) and the MIC [3] was 0.1 µg/mL (≈ 0.296 µM). It also gave an MIC [4] of over 50 µg/mL, an MIC [5] of 0.39 µg/mL (≈ 1.15 µM) and an MIC [6] of 0.19 µg/mL (≈ 0.562 µM).
`Clc1ccc(CN2CCc3ccccc3C2Cn2cncn2)c(Cl)c1` (stereo not drawn) showed an MIC [1] of over 50 µg/mL, an MIC [2] of over 50 µg/mL and an MIC [3] of over 50 µg/mL. For the same molecule, the MIC [4] was over 50 µg/mL, the MIC [5] was 12.5 µg/mL (≈ 33.5 µM) and the MIC [6] was 4 µg/mL (≈ 10.7 µM).
Molecule `Fc1ccc(CN2CCc3ccccc3C2Cn2ccnc2)cc1` (stereo not drawn) has an MIC [1] of 6.25 µg/mL (≈ 19.4 µM), an MIC [2] of 12.5 µg/mL (≈ 38.9 µM) and an MIC [3] of over 50 µg/mL. It also gave an MIC [4] of over 50 µg/mL, an MIC [5] of over 50 µg/mL and an MIC [6] of 0.1 µg/mL (≈ 0.311 µM).
`c1ccc(CN2CCc3ccccc3C2Cn2cncn2)cc1` (stereo not drawn) showed an MIC [1] of over 50 µg/mL, an MIC [2] of over 50 µg/mL and an MIC [3] of over 50 µg/mL. For the same molecule, the MIC [4] was over 50 µg/mL, the MIC [5] was over 50 µg/mL and the MIC [6] was 4 µg/mL (≈ 13.1 µM).
Molecule `C[C@@H]1[C@H](O)[C@@H](C)/C=C/C=C/C=C/C=C/C=C/C=C/C=C/[C@H](O[C@@H]2O[C@H](C)[C@@H](O)[C@H](N)[C@@H]2O)C[C@@H]2O[C@](O)(C[C@@H](O)C[C@@H](O)[C@H](O)CC[C@@H](O)C[C@@H](O)CC(=O)O[C@H]1C)C[C@H](O)[C@H]2C(=O)O` [AMPHOTERICIN B] has an MIC [1] of 12.5 µg/mL (≈ 13.5 µM), an MIC [2] of 25 µg/mL (≈ 27.1 µM) and an MIC [3] of 0.19 µg/mL (≈ 0.206 µM). The MIC [4] was 0.19 µg/mL (≈ 0.206 µM), the MIC [5] was 0.19 µg/mL (≈ 0.206 µM) and the MIC [6] was 1.56 µg/mL (≈ 1.69 µM).
Work on `OC(Cn1cncn1)(Cn1cncn1)c1ccc(F)cc1F` [FLUCONAZOLE] yielded an MIC [7] of over 50 µg/mL, an MIC [2] of over 50 µg/mL and an MIC [3] of 0.39 µg/mL (≈ 1.27 µM). For the same molecule, the MIC [4] was over 50 µg/mL, the MIC [5] was 3.12 µg/mL (≈ 10.2 µM) and the MIC [8] was over 50 µg/mL.
With `Clc1ccc(COC(Cn2ccnc2)c2ccc(Cl)cc2Cl)c(Cl)c1` (stereo not drawn) [MICONAZOLE] the MIC [7] was 0.39 µg/mL (≈ 0.937 µM), the MIC [2] was 0.39 µg/mL (≈ 0.937 µM) and the MIC [3] was 0.09 µg/mL (≈ 0.216 µM). For the same molecule, the MIC [4] was 12.5 µg/mL (≈ 30 µM), the MIC [5] was 0.19 µg/mL (≈ 0.457 µM) and the MIC [8] was 0.39 µg/mL (≈ 0.937 µM).
